Here are results for six compounds from PMC10590056, “Design and synthesis of cabotegravir derivatives bearing 1,2,3-triazole and evaluation of anti-liver cancer activity” (Frontiers in Pharmacology, 2023).

Values joined by “and” are separate entries in the source; they are usually repeats but may differ in a detail not shown here. Identical values can stand only once. Like-named read-outs stand apart in the source and are kept apart here.

Assay [1] has as its system HepG2 cells. To be noted: cited from earlier work.
The subject of assay [2] is mutant lung cancer cells (PC-9). Further details: method as in Mao L. F. et al., 2020. To be noted: PC-9, stronger effect than icotinib; ref Mao L. F. et al., 2020; cited from earlier work.
Assay [3] concerns wild-type lung cancer cells (A549). Further details: method as in Mao L. F. et al., 2020. To be noted: A549, stronger effect than icotinib; ref Mao L. F. et al., 2020; cited from earlier work.
The test system of assay [4] is HepG2 cells. Kind of assay: MTT assay for cell proliferation and cytotoxicity, HepG2. Format: cell-based. Details: key to Inhibitory rate: inhibition rate = 1 - mean A490 sample/mean A490 control (fraction). Put shortly: (§1)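 Cells grown in DMEM with 10% FBS at 37 °C, 5% CO2, seeded at 10^5 cells/mL and exposed to KJ-5 or KJ-12 at 0–32 μM for 48 h. MTT added for 4 h, formazan dissolved in DMSO, A490 read; inhibition = (1 − sample/control A490) × 100%.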
In general terms: Tetrazolium assays rely on reduction of a dye to a coloured formazan, in cell work by metabolically active cells.

The next assay deals with HeLa cells. The assay can be described thus: MTT assay for cell proliferation, HeLa. In kind it is cell-based. Further details: key to Inhibitory rate: inhibition rate = 1 - mean A490 sample/mean A490 control (fraction). As to conditions: Hela. The method in brief:
as §1

The subject of the next assay is MCF-7 cells. Kind of assay: MTT assay for cell proliferation, MCF-7. Format: cell-based. Further details: key to Inhibitory rate / Inhibition rate: inhibition rate = 1 - mean A490 sample/mean A490 control (fraction). Put shortly:
as §1

For the next assay, the system named is KYSE-30 cells. Kind of assay: MTT assay for cell proliferation, KYSE-30. In kind it is cell-based. Details: key to Inhibitory rate: inhibition rate = 1 - mean A490 sample/mean A490 control (fraction). To be noted: for Inhibitory rate: KYSE-30, given as fraction. The method in brief: as §1
[5] abbreviates: HepG2, fraction, per experiment.
[6] abbreviates: MCF-7, fraction, per experiment.

Consider `Cc1c(C(=O)Nc2ccc(Oc3cccc4[nH]ccc34)c(F)c2)nnn1-c1ccc(F)cc1` [compound 3], for which, in the assay on HepG2 cells [1] (ref Wang L. et al., 2018, Chen et al., 2022b, read-out: IC50 for HepG2 cells), the IC50 (usually the concentration that gives 50% inhibition) was 2.03 µM.
Turning to `O=C(NCc1cn(-c2ccc(I)cc2)nn1)Nc1ccc(Cl)c(C(F)(F)F)c1` [compound 4], in the assay with HepG2 cells [1] (ref Chen et al., 2022a, Oekchuae et al., 2022, read-out: IC50 for HepG2 cells), the IC50 is 5.57 µM.
Take `C[C@]12CC[C@@H]3c4ccc(O)cc4CC[C@H]3[C@@H]1CC[C@@]2(O)c1cn(CC(=O)c2ccc(Cl)cc2)nn1` [compound 2]: in the assay on HepG2 cells [1] (ref Queiroz et al., 2019, read-out: IC50 for HepG2 cells), the IC50 was 17.8 µM.
Regarding `Clc1cccc(-n2cc(-c3cccc(Nc4ncnc5cc6c(cc45)OCCOCCOCCO6)c3)nn2)c1` [compound 5], the “Inhibitory effect on PC-9 cells” value in assay [2] is reported as “excellent inhibitory effects”. Besides, the “Inhibitory effect on A549 cells” value in assay [3] is on record as “excellent inhibitory effects”.
`COc1ccc(CN(C(=O)Cn2cc(COc3ccc4c(C)cc(=O)oc4c3)nn2)c2cc(OC)c(OC)c(OC)c2)cc1` [compound 1]: in the assay on HepG2 cells [1] (ref Fu et al., 2019, read-out: IC50 for the inhibition of HepG2 cells), the IC50 is 1.71 µM.
`COc1c2n(cc(C(=O)Nc3cccc(-c4cn(-c5ccccc5C)nn4)c3)c1=O)C[C@H]1OC[C@H](C)N1C2=O` [KJ-3] yielded an IC50 in the assay on HepG2 cells [4] (HepG2, 48 h, MTT) of 19.5 ± 0.5 µM. Moreover, the Inhibitory rate with HepG2 cells [4] (setting [5]) was 0.4219 and 0.4728 and 0.4157; with HeLa cells (fraction, per experiment) it was 0.3938 and 0.4133 and 0.3211; in the assay with MCF-7 cells (setting [6]), 0.4113; in the assay with MCF-7 cells (given as fraction, second of three experiments), 0.4254; in the assay on KYSE-30 cells (first of three experiments), 0.3903; with KYSE-30 cells (second of three experiments), 0.2997. In the assay with KYSE-30 cells (third of three experiments), the Inhibitory rate is on record as 0.2805. The ODtreated/ODcontrol with HepG2 cells [4] (setting [5]) is 0.5781 and 0.5272 and 0.5843; in the assay on HeLa cells (fraction, per experiment), 0.6062 and 0.5867 and 0.6789; with MCF-7 cells (setting [6]), 0.5887; in the assay on MCF-7 cells (second of three experiments), 0.5746; in the assay on MCF-7 cells (third of three experiments), 0.6695; in the assay with KYSE-30 cells (KYSE-30, first of three experiments) it was 0.6097. The ODtreated/ODcontrol with KYSE-30 cells (KYSE-30, second of three experiments) is recorded as 0.7003; in the assay with KYSE-30 cells (KYSE-30, third of three experiments), 0.7195. Moreover, in the assay on HepG2 cells [4] (preliminary screening, HepG2, 16 μM, 48 h, mean±SD, unit not given), the “Inhibition rate (16μM), 48 h, HepG2” value is 43.68±3.13. The “Inhibition rate (16μM), 48 h, Hela” value in the assay on HeLa cells (preliminary screening, 16 μM, 48 h, mean±SD, unit not given) is 37.61±4.86. The same compound gave an Inhibition rate in the assay with MCF-7 cells (given as fraction, third of three experiments) of 0.3305. The “Inhibition rate (16μM), 48 h, MCF-7” value in the assay on MCF-7 cells (preliminary screening, MCF-7, 16 μM, 48 h, mean±SD, unit not given) is 38.91±5.12. Besides, the “Inhibition rate (16μM), 48 h, KYSE-30” value in the assay on KYSE-30 cells (preliminary screening, KYSE-30, 16 μM, 48 h, mean±SD, unit not given) came to 32.35±5.86.
